# Experimental data reported in article PMC3954757, “Novel Potent Imidazo[1,2-a]pyridine-N-Glycinyl-Hydrazone Inhibitors of TNF-α Production: In Vitro and In Vivo Studies” (PLoS ONE, 2014).
# Where “and” joins values, the source holds several entries; their conditions need not be identical. Equal values may be shown once.
# How the values were obtained:
# [1] = Cell viability by MTT assay; format: cell-based, mouse; settings: mouse, peritoneal macrophages; 10 µM; MTT; compared to vehicle (DMSO)
# Method: (§1) The peritoneal macrophage were obtained and plated as described above. The cells were incubated with the vehicle or compounds for 20 hours when was added 200 µL of RPMI medium containing 0.5 mg/mL MTT […] (3-(4,5-dimethylthiazol-2-yl)-2,5-diphenyltetrazolium bromide) followed by 4 hour of incubation at 37°C in a 5% CO2 atmosphere. After incubation supernatants were discarded and 200 µL DMSO (dimethylsulfoxide) were added to solubilize the MTT-formazan crystals. The optical density was measured in a microplate reader at 490 nm. The control groups consisted of cells with medium plus vehicle used to dissolve the substances and was considered as 100% of viable cells. Results are expressed as percentage of viable cells when compared with control groups.
# [2] = system: murine peritoneal macrophages; assay: Cell viability by MTT assay; format: cell-based, mouse; settings: for IC50: Mus musculus, Peritoneal macrophage, MTT cytotoxicity, concentration range 0.1–100 µM; for Selectivity Index (SI): SI = cytotoxicity IC50/anti-TNF-α IC50
# Method: as §1
# p38α MAPK = p38α MAPK (Homo sapiens, UniProt Q16539); assay: p38α MAPK activity, nonradioactive immunosorbent assay; format: biochemical
# Method: Because the novel N-acylhydrazone derivatives 1 were designed based on the p38α MAPK inhibitor BIRB-796 (3), some of them were evaluated for their in vitro capacity to inhibit p38α MAPK activity at a concentration of 10 µM.
# *This assay was performed as described by Goettert MR, Graeser, Laufer SA (2010) Optimization of a nonradioactive immunosorbent assay for p38 alpha mitogen-activated protein kinase activity. Anal Biochem 406: 233–234.
# TNF-α production [3] = assay: LPS-induced TNF-α production in culture of mice peritoneal macrophage (ELISA); settings: Mus musculus; for inhibition at 10 µM: 24 h, read-out: TNF-α % inhibition at 10 µM; for IC50: read-out: TNF-α IC50
# Method: BALBc mice received thyoglicollate 3% (1 mL/mice; i.p.) and 3 days later the peritoneal cavities were washed with RPMI 1640 culture medium (Sigma, USA, supplemented with 10% fetal bovine serum). The peritoneal macrophages were plated onto 96-wells plate (30.000 cells/well) for 1 hour at 37°C in a humidified 5% CO2 atmosphere. Then, macrophages were incubated with the vehicle or compounds and 1 hour later stimulated with LPS(100 ng/mL) for 24 hours when the supernatants were collected to evaluate TNF-α production by ELISA kit (B&D Bioscience, USA).
# TNF-α production [4] = assay: Subcutaneous air pouch (SAP) model, TNF-α in exudate; format: in vivo, mice; settings: 1i oral pre-treatment, carrageenan 1% SAP
# Excerpt: Because compound 1i provided a better balance between the IC50 value for TNF-α production and cellular toxicity in vitro, we evaluated its effects in the subcutaneous air pouch (SAP) model, an in vivo model of inflammation and TNF production, [28].
# (§2) Figure 4 Effect of compound 1i on TNF-α production. Twenty-four hours prior to carrageenan (1%) injection into the subcutaneous air pouch (SAP), animals were pretreated by oral administration with different doses of a solution of 1i. The results are presented as the mean ± S. D. (n = 6–10) of TNF-α (pg/mL). Statistical significance was calculated by ANOVA followed by Bonferroni’s test. * indicates p<0.005 for the comparison of 1i -treated mice with the vehicle-treated group; # indicates p<0.005 for the comparison of vehicle-treated mice with the PBS-treated group.
# (§3) The experimental protocol was similar to that described by Romano and colleagues (1997) with several modifications described by Raymundo and colleagues (2011). The animals received a dorsal subcutaneous injection of sterile air (10 mL) on three alternate days to induce the SAP. On the sixth day, animals received a subcutaneous injection of sterile carrageenan suspension (1%; 1 mL). Mice were pre-treated with vehicle (Polysorbate 80), 1i (3, 10, 30 and 100 µmol/kg) or dexamethasone (1.5 µmol/kg, i.p.) 1 h before carrageenan injection into the SAP. The control group received an injection of sterile PBS (1 mL) into the SAP. Animals were sacrificed 24 h after carrageenan injection. The cavity was washed with 1 mL of sterile PBS. Exudates were collected, centrifuged at 11,000 rpm for 10 min at 4°C and TNF-α accumulated was quantified. The cytokines quantification was done by enzyme-linked immunosorbent assay (ELISA) according to the manufacturer’s instructions (B&D, USA). The results are expressed as pg/mL of each cytokine. Animals were sacrificed after an exposition to a saturated carbon dioxide atmosphere in an appropriate gas chamber.
# IL-1β production = assay: Subcutaneous air pouch (SAP) model, IL-1β in exudate; format: in vivo, mice; settings: oral
# Method: (§4) We also measured the levels of the cytokines interferon-γ (IFN- γ) and interleukin 1β (IL-1β).
# as §2, with “5” for “4”, “IL-1β and IFN-γ” for “TNF-α”, “each cytokine (ng/mL).” for “TNF-α (pg/mL).”
# as §3
# IFN-γ production = assay: Subcutaneous air pouch (SAP) model, IFN-γ in exudate; format: in vivo, mice; settings: oral
# Method: as §4
# as §2, with “5” for “4”, “IL-1β and IFN-γ” for “TNF-α”, “each cytokine (ng/mL).” for “TNF-α (pg/mL).”
# as §3
# p38α MAPK, sequence (Q16539 whole entry): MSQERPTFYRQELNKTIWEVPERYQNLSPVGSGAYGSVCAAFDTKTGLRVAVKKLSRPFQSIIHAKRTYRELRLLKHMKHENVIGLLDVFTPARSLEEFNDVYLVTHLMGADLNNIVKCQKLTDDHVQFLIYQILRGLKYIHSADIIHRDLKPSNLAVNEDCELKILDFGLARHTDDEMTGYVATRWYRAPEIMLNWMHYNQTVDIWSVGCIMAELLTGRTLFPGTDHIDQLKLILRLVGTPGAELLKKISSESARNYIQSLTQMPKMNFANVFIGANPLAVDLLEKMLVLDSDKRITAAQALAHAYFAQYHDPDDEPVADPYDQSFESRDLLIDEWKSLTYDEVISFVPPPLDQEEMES
inhibition at 10 µM (p38α MAPK) [%],melting point,IC50 (TNF-α production [3]) [µM],SMILES,"viability at 20 h, 10 µM [1] [%]",IC50 [2] [µM],Selectivity Index (SI) [2],inhibition at 10 µM (TNF-α production [3]) [%],further results
11.8,135 to 137 °C,0.62,"CC(C)(C)c1nc2ccccn2c1NCC(=O)N/N=C/c1ccc(OCCN2CCOCC2)c2ccccc12 [Compound 1a, (E)-2-(2-tert-butylimidazo[1,2-a]pyridin-3-ylamino)-N’-((4-(2-morpholinoethoxy)naphthalen-1-yl)methylene)acetohydrazide]",20.1,6.9,11.1,95.3,–
6.5,105 to 108 °C,0.34,"O=C(CNc1c(-c2ccccc2)nc2ccccn12)N/N=C/c1ccc(OCCN2CCOCC2)c2ccccc12 [Compound 1b, (E)-N’-((4-(2-morpholinoethoxy)naphthalen-1-yl)methylene)-2-(2-phenylimidazo [1,2-a]pyridin-3-ylamino)acetohydrazide]",78.4,14.7,43.2,77.3,–
–,273 to 275 °C,3.67,"O=C(CNc1c(-c2ccccc2)nc2ccccn12)N/N=C/c1ccc(O)cc1 [Compound 1d, (E)-N’-(4-hydroxybenzylidene)-2-(2-phenylimidazo[1,2-a]pyridin-3-ylamino) acetohydrazide]",100,–,–,56.7,–
–,230 to 232 °C,–,"CC(C)(C)c1nc2ccccn2c1NCC(=O)N/N=C/c1ccccc1 [Compound 1g, (E)-N’-benzylidene-2-(2-tert-butylimidazo[1,2-a]pyridin-3-ylamino)acetohydrazide]",100,–,–,5.6,–
–,232 to 234 °C,0.21,"CC(C)(C)c1nc2ccccn2c1NCC(=O)N/N=C/c1ccc(Cl)cc1 [Compound 1i, (E)-2-(2-tert-butylimidazo[1,2-a]pyridin-3-ylamino)-N’-(4-chlorobenzylidene) acetohydrazide]",73.3,21.7,103.3,78,reduction of TNF-α production (TNF-α production [4]; 3 µmol/kg): 96.8%; reduction of TNF-α production (TNF-α production [4]; 10 µmol/kg): 90.6%; reduction of TNF-α production (TNF-α production [4]; 30 µmol/kg): 97.3%; reduction of TNF-α production (TNF-α production [4]; 100 µmol/kg): 95.31%; reduction in IL-1β (IL-1β production; 3 µmol/kg): 81%; reduction in IL-1β (IL-1β production; 10 µmol/kg): 69.5%; reduction in IL-1β (IL-1β production; 30 µmol/kg): 74.7%; reduction in IL-1β (IL-1β production; 100 µmol/kg): 65.7%; inhibition of IFN-γ (IFN-γ production; 3 µmol/kg): 83.7%; inhibition of IFN-γ (IFN-γ production; 10 µmol/kg): 83%; inhibition of IFN-γ (IFN-γ production; 30 µmol/kg): 82.8%; inhibition of IFN-γ (IFN-γ production; 100 µmol/kg): 82.4%
–,–,3.6,"CC(C)(C)c1cc(NCC(=O)N/N=C/c2ccc(OCCN3CCOCC3)c3ccccc23)n(-c2ccccc2)n1 [LASSBio-1504 (2), reference compound]",61.5,10.3,2.8,96.9,–

# Continued, compound first:
SMILES,inhibition at 10 µM (p38α MAPK) [%],melting point,IC50 (TNF-α production [3]) [µM],"viability at 20 h, 10 µM [1] [%]",IC50 [2] [µM],Selectivity Index (SI) [2],inhibition at 10 µM (TNF-α production [3]) [%],further results
"O=C(CNc1c(-c2ccccc2)nc2ccccn12)N/N=C/c1ccc(OCCN2CCOCC2)cc1 [Compound 1c, (E)-N’-(4-(2-morpholinoethoxy)benzylidene)-2-(2-phenylimidazo[1,2-a]pyridin-3-ylamino)acetohydrazide]",22.6,169 to 171 °C and 167 to 169 °C,–,100,–,–,18.3,–
"O=C(CNc1c(-c2ccccc2)nc2ccccn12)N/N=C/c1ccc(Cl)cc1 [Compound 1e, (E)-N’-(4-chlorobenzylidene)-2-(2-phenylimidazo[1,2-a]pyridin-3-ylamino) acetohydrazide]",–,122 to 124 °C and 120 to 122 °C,3.05,100,–,–,53.8,–
"O=C(CNc1c(-c2ccccc2)nc2ccccn12)N/N=C/c1ccccc1 [Compound 1f, (E)-N’-benzylidene-2-(2-phenylimidazo[1,2-a]pyridin-3-ylamino)acetohydrazide]",–,138 to 141 °C,–,100,–,–,29.3,–
"CC(C)(C)c1nc2ccccn2c1NCC(=O)N/N=C/c1ccc(OCCN2CCOCC2)cc1 [Compound 1h, (E)-2-(2-tert-butylimidazo[1,2-a]pyridin-3-ylamino)-N’-(4-(2-morpholinoethoxy)benzylidene)acetohydrazide]",–,–,–,100,–,–,2.8,–
"O=C(CNc1c(-c2ccccc2)nc2ccccn12)N/N=C/c1ccc(O)c2ccccc12 [Compound 1j, (E)-N’-((4-hydroxynaphthalen-1-yl)methylene)-2-(2-phenylimidazo[1,2-a]pyridin-3-ylamino)acetohydrazide]",–,> 300 °C,0.31,40,10.4,33.5,90.8,–
"O=C(CNc1c(-c2ccccc2)nc2ccccn12)N/N=C/c1cccc2ccccc12 [Compound 1k, (E)-N’-(naphthalen-1-ylmethylene)-2-(2-phenylimidazo[1,2-a]pyridin-3-ylami-no)acetohydrazide]",17.2,208 to 210 °C,0.99,83.2,23.5,23.7,75.8,–
"C[S+]([O-])c1ccc(-c2nc(-c3ccncc3)c(-c3ccc(F)cc3)[nH]2)cc1 (stereo not drawn) [SB-203580, reference compound]",–,–,–,44.3,–,–,90,–
